Experiments:
Test in all cases: KINOMEscan
Format in all cases: binding
TSSK1B = biological target: T1, TSSK1B (Homo sapiens, UniProt Q9BXA7)
T1 construct: purchased Eurofins DiscoverX, LLC; host or cells: E. coli BL21-derived host (T7 phage) or HEK-293
T1 sequence (Q9BXA7 1-367): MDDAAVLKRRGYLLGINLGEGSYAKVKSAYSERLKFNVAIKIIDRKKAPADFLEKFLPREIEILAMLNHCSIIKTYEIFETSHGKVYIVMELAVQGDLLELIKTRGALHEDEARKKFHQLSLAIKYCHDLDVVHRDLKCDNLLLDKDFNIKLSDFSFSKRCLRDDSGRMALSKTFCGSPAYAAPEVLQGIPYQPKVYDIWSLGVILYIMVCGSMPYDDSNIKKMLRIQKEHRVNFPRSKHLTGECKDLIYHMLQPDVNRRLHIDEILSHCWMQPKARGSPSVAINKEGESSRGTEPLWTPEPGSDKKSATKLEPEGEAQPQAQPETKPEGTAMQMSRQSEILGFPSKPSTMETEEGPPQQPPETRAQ
Method: (§1) The kinase inhibition profile of compounds 94 and 95 was assessed against 103 protein kinases by Eurofins DiscoverX, LLC., using the KINOMEscan assay. Kinase-tagged T7 phage strains were grown in parallel in 24-well blocks in an E. coli host derived from the BL21 strain. E. coli were grown to log-phase and infected with T7 phage from a frozen stock (multiplicity of infection = 0.4) and incubated with shaking at 32 °C until lysis (90–150 min). The lysates were centrifuged (6000g) and filtered (0.2 μm) to remove cell debris. The remaining kinases were produced in HEK-293 cells and subsequently tagged with DNA for qPCR detection. […] The liganded beads were blocked with excess biotin and washed with blocking buffer (SeaBlock (Pierce), 1% BSA, 0.05% Tween 20, 1 mM DTT) to remove unbound ligand and to reduce nonspecific phage binding. […] Test compounds were prepared as 100× stocks in 100% DMSO and directly diluted into the assay. All reactions were performed in polypropylene 384-well plates in a final volume of 0.02 mL. […] The kinase concentration in the eluates was measured by qPCR.
(§2) The compound(s) were screened at the concentration(s) requested, and results for primary screen binding interactions are reported as RA (%), where lower numbers indicate stronger hits in the matrix. RA=(testcompoundsignal−PCsignal/NCsignal−PCsignal)×100

PAK4 = biological target: T2, PAK4 (Homo sapiens, UniProt O96013)
T2 construct: purchased Eurofins DiscoverX, LLC; host or cells: E. coli BL21-derived host (T7 phage) or HEK-293
T2 sequence (O96013 whole entry): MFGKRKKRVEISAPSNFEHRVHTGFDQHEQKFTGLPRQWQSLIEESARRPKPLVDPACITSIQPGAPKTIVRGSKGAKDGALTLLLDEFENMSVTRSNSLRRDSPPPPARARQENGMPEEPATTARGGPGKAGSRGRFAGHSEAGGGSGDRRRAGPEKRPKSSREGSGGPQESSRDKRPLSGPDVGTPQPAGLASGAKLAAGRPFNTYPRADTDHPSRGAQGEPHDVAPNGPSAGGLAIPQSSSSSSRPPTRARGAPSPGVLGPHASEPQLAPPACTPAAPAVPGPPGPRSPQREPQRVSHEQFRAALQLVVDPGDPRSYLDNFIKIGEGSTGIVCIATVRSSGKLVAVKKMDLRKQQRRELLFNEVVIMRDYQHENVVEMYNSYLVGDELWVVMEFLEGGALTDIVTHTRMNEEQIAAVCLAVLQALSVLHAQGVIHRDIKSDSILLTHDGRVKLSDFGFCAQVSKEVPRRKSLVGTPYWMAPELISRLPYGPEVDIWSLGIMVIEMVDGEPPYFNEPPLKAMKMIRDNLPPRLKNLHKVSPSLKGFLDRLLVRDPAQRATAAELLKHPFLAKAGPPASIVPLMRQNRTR
Method: as §1, §2

MET = biological target: T3, MET (Homo sapiens, UniProt P08581)
T3 construct: purchased Eurofins DiscoverX, LLC; host or cells: E. coli (BL21-derived, T7 phage) or HEK-293
T3 sequence (P08581 25-1390): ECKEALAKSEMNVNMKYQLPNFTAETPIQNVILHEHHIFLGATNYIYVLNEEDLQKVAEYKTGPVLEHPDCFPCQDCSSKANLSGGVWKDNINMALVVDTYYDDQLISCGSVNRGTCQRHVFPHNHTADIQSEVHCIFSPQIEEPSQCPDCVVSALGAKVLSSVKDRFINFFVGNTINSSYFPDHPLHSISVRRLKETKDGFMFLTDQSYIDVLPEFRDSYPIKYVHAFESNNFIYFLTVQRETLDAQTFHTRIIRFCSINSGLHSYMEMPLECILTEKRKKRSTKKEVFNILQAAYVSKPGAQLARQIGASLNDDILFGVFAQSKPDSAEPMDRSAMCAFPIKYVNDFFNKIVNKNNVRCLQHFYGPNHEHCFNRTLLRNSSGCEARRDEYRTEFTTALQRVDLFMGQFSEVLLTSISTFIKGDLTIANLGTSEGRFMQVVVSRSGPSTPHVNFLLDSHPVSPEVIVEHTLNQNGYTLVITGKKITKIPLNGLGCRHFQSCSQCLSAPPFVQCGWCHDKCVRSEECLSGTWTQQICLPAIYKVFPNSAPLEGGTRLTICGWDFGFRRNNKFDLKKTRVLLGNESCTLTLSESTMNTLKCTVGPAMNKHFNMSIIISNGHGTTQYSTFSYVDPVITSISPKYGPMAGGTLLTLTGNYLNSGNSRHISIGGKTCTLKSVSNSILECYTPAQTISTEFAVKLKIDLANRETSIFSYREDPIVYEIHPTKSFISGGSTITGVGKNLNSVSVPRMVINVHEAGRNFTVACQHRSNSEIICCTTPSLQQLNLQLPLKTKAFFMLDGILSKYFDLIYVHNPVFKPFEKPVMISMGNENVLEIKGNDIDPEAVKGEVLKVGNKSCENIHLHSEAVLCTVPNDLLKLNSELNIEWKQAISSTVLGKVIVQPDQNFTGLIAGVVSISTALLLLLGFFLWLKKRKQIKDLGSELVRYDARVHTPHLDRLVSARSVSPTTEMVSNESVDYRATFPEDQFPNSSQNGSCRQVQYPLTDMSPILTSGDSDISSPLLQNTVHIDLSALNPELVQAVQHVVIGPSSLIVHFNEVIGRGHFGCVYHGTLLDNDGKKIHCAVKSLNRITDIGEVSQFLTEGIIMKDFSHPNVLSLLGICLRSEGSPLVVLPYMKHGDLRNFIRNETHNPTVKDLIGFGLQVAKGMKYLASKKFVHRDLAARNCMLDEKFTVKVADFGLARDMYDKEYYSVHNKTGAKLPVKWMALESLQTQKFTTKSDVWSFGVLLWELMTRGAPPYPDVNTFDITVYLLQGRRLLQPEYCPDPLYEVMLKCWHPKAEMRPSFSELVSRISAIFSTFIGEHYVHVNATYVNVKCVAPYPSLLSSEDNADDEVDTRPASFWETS
Method: as §1, §2

ROCK2 = biological target: T4, ROCK2 (Homo sapiens, UniProt O75116)
T4 construct: purchased Eurofins DiscoverX, LLC; host or cells: E. coli BL21-derived host (T7 phage) or HEK-293
T4 sequence (O75116 whole entry): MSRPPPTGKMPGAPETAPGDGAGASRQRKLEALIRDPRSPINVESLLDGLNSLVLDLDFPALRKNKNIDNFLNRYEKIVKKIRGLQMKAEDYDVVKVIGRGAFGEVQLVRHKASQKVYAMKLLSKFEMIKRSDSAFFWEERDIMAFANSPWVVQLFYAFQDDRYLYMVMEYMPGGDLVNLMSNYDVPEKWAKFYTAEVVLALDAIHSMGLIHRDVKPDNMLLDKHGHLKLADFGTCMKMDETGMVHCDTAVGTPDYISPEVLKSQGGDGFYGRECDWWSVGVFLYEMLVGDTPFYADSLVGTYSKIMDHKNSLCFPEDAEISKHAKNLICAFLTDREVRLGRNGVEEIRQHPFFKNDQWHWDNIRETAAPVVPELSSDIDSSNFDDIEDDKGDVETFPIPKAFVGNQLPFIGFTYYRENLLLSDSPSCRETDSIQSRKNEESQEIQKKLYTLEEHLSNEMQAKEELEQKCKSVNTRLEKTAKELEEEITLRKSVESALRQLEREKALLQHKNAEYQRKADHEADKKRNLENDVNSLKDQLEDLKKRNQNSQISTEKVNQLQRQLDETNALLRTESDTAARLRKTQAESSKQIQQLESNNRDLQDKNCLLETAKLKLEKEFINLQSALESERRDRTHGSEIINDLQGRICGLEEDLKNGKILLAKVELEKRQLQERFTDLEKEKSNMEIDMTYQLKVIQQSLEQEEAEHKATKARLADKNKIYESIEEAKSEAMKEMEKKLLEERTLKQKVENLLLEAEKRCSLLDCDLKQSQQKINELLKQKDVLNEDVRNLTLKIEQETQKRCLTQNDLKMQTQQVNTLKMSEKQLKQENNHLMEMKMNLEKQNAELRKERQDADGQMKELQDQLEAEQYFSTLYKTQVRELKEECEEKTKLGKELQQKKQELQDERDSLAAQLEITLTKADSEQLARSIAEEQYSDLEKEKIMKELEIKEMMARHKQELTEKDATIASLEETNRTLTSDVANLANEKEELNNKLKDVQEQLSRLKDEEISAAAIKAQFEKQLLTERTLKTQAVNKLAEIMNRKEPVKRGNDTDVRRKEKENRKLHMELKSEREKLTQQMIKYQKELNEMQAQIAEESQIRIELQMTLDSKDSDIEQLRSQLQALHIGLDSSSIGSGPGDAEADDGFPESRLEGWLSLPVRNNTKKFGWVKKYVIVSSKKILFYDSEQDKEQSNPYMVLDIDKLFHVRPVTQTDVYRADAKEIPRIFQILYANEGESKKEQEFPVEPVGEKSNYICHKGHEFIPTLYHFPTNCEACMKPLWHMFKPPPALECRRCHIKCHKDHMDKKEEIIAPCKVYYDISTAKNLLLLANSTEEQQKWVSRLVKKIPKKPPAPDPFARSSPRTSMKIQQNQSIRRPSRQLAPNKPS
Method: as §1, §2

MKNK1 = biological target: T5, MKNK1 (Homo sapiens, UniProt Q9BUB5)
T5 construct: purchased Eurofins DiscoverX, LLC; host or cells: E. coli (BL21-derived, T7 phage) or HEK-293
T5 sequence (Q9BUB5 whole entry): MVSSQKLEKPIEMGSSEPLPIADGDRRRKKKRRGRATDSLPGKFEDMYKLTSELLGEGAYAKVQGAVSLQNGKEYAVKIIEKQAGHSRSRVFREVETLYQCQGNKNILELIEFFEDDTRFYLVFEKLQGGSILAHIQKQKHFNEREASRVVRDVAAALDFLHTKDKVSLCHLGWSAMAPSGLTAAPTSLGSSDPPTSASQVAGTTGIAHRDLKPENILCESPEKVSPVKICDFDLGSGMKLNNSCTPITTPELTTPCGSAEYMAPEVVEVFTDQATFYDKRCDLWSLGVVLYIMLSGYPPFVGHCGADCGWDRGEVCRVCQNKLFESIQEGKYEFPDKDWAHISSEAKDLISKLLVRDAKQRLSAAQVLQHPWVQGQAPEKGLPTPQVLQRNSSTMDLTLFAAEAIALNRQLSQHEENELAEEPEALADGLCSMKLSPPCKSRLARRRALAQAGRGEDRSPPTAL
Method: as §1, §2

IKKα = biological target: T6, IKKα (Homo sapiens, UniProt O15111)
T6 construct: purchased Eurofins DiscoverX, LLC; host or cells: E. coli (T7 phage) or HEK-293
T6 sequence (O15111 1-745): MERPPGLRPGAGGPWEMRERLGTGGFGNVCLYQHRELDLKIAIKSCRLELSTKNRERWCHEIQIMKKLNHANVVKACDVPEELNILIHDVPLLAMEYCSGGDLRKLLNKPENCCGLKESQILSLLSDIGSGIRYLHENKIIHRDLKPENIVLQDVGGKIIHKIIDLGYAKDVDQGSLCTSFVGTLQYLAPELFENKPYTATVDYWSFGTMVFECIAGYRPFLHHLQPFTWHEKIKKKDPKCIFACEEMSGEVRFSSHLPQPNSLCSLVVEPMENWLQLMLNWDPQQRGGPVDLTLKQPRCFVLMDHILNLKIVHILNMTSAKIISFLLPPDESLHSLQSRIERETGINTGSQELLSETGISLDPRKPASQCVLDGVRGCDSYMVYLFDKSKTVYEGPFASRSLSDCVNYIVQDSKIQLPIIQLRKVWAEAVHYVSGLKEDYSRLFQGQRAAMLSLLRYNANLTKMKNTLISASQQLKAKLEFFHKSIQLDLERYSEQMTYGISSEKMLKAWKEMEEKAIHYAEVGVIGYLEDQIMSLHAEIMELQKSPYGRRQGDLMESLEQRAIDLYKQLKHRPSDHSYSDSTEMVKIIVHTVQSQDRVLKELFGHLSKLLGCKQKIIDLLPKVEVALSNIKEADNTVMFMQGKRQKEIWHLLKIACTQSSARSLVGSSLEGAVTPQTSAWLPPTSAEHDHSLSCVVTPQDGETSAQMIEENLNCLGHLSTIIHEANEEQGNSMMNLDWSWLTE
Method: as §1, §2

PRKCE = biological target: T7, PRKCE (Homo sapiens, UniProt Q02156)
T7 construct: purchased Eurofins DiscoverX, LLC; host or cells: E. coli BL21-derived host (T7 phage) or HEK-293
T7 sequence (Q02156 1-737): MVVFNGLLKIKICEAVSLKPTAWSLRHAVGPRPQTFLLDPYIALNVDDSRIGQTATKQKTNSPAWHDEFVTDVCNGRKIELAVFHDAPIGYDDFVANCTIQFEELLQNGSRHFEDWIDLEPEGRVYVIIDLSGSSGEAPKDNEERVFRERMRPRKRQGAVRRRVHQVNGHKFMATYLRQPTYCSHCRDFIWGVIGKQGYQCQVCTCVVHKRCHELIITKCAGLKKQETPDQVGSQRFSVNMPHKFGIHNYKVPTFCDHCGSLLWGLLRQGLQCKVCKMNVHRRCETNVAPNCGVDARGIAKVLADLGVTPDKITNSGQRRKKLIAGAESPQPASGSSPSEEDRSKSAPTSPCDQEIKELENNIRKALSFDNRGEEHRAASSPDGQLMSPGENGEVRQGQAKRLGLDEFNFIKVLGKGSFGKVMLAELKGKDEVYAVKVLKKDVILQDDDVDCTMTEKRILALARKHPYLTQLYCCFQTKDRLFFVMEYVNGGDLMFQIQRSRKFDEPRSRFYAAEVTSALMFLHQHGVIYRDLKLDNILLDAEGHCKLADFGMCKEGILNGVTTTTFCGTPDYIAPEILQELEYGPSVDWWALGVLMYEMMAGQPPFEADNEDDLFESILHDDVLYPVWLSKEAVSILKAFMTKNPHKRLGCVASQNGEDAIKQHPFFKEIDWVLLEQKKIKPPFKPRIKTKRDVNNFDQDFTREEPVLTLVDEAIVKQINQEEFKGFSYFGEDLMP
Method: as §1, §2

PAK2 = biological target: T8, PAK2 (Homo sapiens, UniProt Q13177)
T8 construct: purchased Eurofins DiscoverX, LLC; host or cells: E. coli (BL21-derived, T7 phage) or HEK-293
T8 sequence (Q13177 whole entry): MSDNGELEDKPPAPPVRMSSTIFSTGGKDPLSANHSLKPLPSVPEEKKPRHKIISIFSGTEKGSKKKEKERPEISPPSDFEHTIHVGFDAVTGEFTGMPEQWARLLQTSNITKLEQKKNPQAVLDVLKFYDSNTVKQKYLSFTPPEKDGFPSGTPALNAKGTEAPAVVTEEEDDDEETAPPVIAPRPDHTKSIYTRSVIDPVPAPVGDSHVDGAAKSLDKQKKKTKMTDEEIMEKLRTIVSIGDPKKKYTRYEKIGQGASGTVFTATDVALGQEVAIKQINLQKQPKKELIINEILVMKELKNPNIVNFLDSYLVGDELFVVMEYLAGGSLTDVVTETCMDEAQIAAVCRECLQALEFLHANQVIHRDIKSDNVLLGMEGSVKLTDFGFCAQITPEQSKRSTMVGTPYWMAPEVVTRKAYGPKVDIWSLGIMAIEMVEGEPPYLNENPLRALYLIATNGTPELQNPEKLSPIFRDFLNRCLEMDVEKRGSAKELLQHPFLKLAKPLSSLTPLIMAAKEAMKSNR
Method: as §1, §2

| Structure (SMILES) | RA @ 1000nM (TSSK1B) [%] | RA @ 10000nM (TSSK1B) [%] | RA @ 1000nM (PAK4) [%] | RA @ 10000nM (PAK4) [%] | RA @ 1000nM (MET) [%] | RA @ 10000nM (MET) [%] | RA @ 1000nM (ROCK2) [%] | RA @ 10000nM (ROCK2) [%] | RA @ 1000nM (MKNK1) [%] | RA @ 10000nM (MKNK1) [%] | RA @ 1000nM (IKKα) [%] | RA @ 10000nM (IKKα) [%] | RA @ 1000nM (PRKCE) [%] | RA @ 10000nM (PRKCE) [%] | RA @ 1000nM (PAK2) [%] | RA @ 10000nM (PAK2) [%] |
| --- | --- | --- | --- | --- | --- | --- | --- | --- | --- | --- | --- | --- | --- | --- | --- | --- |
| CN(C)CCNC(=O)c1cc2c(cnn2CC2CCCCC2)cc1Cc1ccc(F)cc1F [Compound 95, 1-(Cyclohexylmethyl)-5-(2,4-difluorobenzyl)-N-(2-(dimethylamino)ethyl)-1H-indazole-6-carboxamide] | 100 | 79 | 100 | 88 | 100 | 100 | 83 | 100 | 100 | 100 | 92 | 75 | 79 | 76 | 100 | 95 |
| CC(C)Cn1ncc2cc(Cc3ccc(F)cc3F)c(C(=O)NCCN(C)C)cc21 [Compound 94, 5-(2,4-Difluorobenzyl)-N-(2-(dimethylamino)ethyl)-1-isobutyl-1H-indazole-6-carboxamide] | 77 | 89 | 97 | 96 | 96 | 100 | 87 | 96 | 100 | 100 | 82 | 87 | 80 | 80 | 100 | 97 |

Source: PMC12406203 (Journal of Medicinal Chemistry, 2025)
